Experiment [1] has as its target binary complex of TF/FVIIa (Homo sapiens, UniProt P00742). The experiment can be described thus: lipidated TF assay (chromogenic assay measuring the FXa generated by TF/FVIIa). Type of experiment: biochemical. The following applies: for IC50: FVIIa 5 pM, FX 20 nM, TF 5 pM, CaCl2 5 mM, 15 min preincubation at ambient temperature, FXa substrate S2765, read-out: IC50: concentration of peptide inhibiting the rate of FX activation by 50%; for IC values (statement in words): lipidated TF assay, summary of Table 1. Here is the method: The inhibitory capacity of the peptides was measured by a so-called lipidated TF assay which is a chromogenic assay measuring the FXa generated by the binary complex of TF/FVIIa. FVIIa (5 pM final concentration) and FX (20 nM) were combined in the presence of different concentrations of peptide and incubated for 15 min at ambient temperature. TF (5 pM) and CaCl2 (5 mM) were added to initiate the reaction. Reactions were quenched with EDTA and the FXa activity was measured in an amidolytic assay, using the chromogenic FXa substrate S2765 (trade name). Data from these studies with this assay are shown in FIG. 1, and Table 1 hereinafter gives the corresponding IC values. Data are plotted as the percentage of the rate of FXa formation determined without peptide versus the concentration of the following peptides: hu#154-163 (SEQ. ID. NO. 1) (.circle-solid.), mu#158-167 (SEQ. ID. NO. 2) (x) and rb#152-161 (SEQ. ID. NO. 3) (Δ).

The target in experiment [2] is TF/FVIIa complex (FX activation) (Homo sapiens, UniProt P00742). Kind of experiment: Dixon plot analysis of the inhibitory mechanism of FXa formation. It is filed as biochemical. The following applies: Dixon plots; three FX concentrations or three TF concentrations in excess of FVIIa. Here is the method: Different concentrations of peptide were mixed with FVIIa and three different concentrations of FX and, after addition of TF, the rate of FXa formation was determined. In another experiment, different concentrations of peptide were mixed with FVIIa and three different concentrations of TF, in excess of FVIIa. After addition of FX, the rate of FXa formation was determined. Results were plotted according to Dixon, the inverse of the rate of FXa formation versus peptide concentration. Peptide mu#158-167 (SEQ. ID. No. 2), produced linear regression lines, which intercepted on the abscissa (different FX concentrations) or above the abscissa (different TF concentrations).
TF/FVIIa complex (FX activation), sequence (P00742 41-179 limits assumed): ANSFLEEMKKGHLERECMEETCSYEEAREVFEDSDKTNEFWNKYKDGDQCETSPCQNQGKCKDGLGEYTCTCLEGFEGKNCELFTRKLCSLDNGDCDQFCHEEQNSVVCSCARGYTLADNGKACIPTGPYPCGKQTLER
TF/FVIIa complex (FX activation), sequence (P00742 235-488 limits assumed): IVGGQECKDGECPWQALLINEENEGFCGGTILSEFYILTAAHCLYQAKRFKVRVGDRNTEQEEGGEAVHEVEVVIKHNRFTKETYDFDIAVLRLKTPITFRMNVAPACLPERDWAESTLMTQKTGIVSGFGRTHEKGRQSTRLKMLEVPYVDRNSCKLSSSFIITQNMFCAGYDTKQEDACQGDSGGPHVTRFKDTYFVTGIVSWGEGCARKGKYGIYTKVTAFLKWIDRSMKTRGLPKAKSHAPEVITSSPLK

binary complex of TF/FVIIa, sequence (P00742 41-179 limits assumed): as the sequence (P00742 41-179 limits assumed) above
binary complex of TF/FVIIa, sequence (P00742 235-488 limits assumed): as the sequence (P00742 235-488 limits assumed) above

Take “H-IITYRKGSST-OH [mu#158-167, H--Ile--Ile--Thr--Tyr--Arg--Lys--Gly--Ser--Ser--Thr--OH]”: in experiment [1], the IC50 came to 21 µM and the “IC values (statement in words)” value is recorded as “very low μm range”. For the same substance, the “inhibitory mechanism of FXa formation” value in experiment [2] is on record as “competes with TF or FVIIa/TF complex for interaction with FX”.
“H--Thr--Leu--Tyr--Tyr--Trp--Arg--Ala--Ser--Ser--Thr--OH (H-TLYYWRASST-OH) [rb#152-161, 10-mer of rabbit TF residues 152-161]”: in experiment [1], the IC50 worked out at 14 µM and the “IC values (statement in words)” value is given as “very low μm range”.
As to “H-TLYYWKSSSS-OH [hu#154-163, H--Thr--Leu--Tyr--Tyr--Trp--Lys--Ser--Ser--Ser--Ser--OH]”, the IC50 in experiment [1] was determined as 100 µM.
